Test results as given in article PMC10009787 (ACS Medicinal Chemistry Letters, 2023).
Where two headings read alike, the source gives them in different places.

How the values were obtained:
PDGFRB (PDGFR beta) = PDGFRB (PDGFR beta) (Homo sapiens, UniProt P09619); test: SelectScreen kinase profiling; assay type: biochemical; settings: average of duplicate
TTK = TTK (Homo sapiens, UniProt P33981); test: SelectScreen kinase profiling; assay type: biochemical; settings: average of duplicate
FRK (PTK5) = FRK (PTK5) (Homo sapiens, UniProt P42685); test: SelectScreen kinase profiling; assay type: biochemical; settings: average of duplicate
EGFR (ErbB1) = EGFR (ErbB1) (Homo sapiens, UniProt P00533); test: SelectScreen kinase profiling / Z′-Lyte kinase assay
Sequence of EGFR (ErbB1) (P00533 668-1210 limits assumed): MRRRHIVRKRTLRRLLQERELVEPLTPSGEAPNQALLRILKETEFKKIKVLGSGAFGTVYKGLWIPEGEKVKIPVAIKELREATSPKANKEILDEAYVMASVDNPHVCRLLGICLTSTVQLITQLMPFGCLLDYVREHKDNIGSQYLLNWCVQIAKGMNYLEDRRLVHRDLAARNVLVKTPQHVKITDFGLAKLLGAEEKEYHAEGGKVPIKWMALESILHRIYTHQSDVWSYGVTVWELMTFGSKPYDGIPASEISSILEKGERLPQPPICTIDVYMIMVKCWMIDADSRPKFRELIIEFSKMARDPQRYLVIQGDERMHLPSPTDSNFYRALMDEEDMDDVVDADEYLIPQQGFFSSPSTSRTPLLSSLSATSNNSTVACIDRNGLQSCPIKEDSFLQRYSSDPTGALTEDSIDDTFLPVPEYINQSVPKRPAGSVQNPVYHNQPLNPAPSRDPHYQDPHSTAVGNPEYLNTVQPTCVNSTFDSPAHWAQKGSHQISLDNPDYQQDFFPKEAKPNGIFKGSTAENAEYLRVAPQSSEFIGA

KIT V559D = KIT V559D (Homo sapiens, UniProt P10721, V559D); test: SelectScreen kinase profiling; assay type: biochemical; settings: average of duplicate
Sequence of KIT V559D (P10721 26-976 V559D): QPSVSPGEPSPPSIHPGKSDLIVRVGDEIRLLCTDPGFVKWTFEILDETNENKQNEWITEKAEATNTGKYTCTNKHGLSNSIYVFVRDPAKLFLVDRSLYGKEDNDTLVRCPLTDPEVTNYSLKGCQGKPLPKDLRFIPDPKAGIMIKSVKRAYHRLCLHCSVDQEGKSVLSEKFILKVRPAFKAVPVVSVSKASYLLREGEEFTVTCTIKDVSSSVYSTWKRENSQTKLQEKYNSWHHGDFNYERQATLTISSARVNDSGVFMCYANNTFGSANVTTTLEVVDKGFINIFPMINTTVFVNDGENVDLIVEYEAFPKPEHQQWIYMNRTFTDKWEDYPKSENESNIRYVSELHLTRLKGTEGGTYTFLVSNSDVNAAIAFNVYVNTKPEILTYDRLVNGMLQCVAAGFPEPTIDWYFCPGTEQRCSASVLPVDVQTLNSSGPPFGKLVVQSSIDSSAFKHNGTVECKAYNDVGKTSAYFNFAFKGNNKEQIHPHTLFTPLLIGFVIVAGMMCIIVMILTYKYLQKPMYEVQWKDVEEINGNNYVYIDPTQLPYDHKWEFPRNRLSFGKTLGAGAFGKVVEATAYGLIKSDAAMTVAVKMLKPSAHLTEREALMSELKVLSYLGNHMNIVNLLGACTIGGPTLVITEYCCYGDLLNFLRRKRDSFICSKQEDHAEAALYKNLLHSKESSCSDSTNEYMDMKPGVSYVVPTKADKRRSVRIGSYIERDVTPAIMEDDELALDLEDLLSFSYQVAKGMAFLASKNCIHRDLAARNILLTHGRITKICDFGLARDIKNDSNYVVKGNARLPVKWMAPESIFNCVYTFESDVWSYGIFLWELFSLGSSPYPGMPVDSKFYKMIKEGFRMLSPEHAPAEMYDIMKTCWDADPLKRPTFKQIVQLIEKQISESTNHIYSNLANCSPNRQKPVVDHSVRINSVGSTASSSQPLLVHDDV

LYN A = LYN A (Homo sapiens, UniProt P07948); test: SelectScreen kinase profiling; assay type: biochemical; settings: average of duplicate
PDGFRA (PDGFR alpha) = PDGFRA (PDGFR alpha) (Homo sapiens, UniProt P16234); test: SelectScreen kinase profiling; assay type: biochemical; settings: average of duplicate
RIPK2 = RIPK2 (Homo sapiens, UniProt O43353); test: SelectScreen kinase profiling; assay type: biochemical; settings: average of duplicate
Sequence of RIPK2 (O43353 whole entry): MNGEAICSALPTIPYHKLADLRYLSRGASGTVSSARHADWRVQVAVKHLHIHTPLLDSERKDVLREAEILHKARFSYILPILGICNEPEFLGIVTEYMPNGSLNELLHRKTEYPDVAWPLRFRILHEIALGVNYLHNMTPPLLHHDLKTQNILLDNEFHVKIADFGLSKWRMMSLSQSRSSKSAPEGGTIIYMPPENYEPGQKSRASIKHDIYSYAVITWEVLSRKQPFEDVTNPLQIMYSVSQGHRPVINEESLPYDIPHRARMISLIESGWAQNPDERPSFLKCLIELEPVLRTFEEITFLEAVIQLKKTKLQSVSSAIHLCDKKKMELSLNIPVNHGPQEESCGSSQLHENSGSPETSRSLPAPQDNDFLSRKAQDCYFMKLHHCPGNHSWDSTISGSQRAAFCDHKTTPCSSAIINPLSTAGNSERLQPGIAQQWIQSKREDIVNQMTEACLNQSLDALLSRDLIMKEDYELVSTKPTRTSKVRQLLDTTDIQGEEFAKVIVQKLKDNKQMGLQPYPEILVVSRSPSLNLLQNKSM

[1] = target: MAP2K1 (MEK1) S218D S222D (Homo sapiens, UniProt Q02750, S218D/S222D); test: SelectScreen kinase profiling; assay type: biochemical; settings: average of duplicate
Sequence of MAP2K1 (MEK1) S218D S222D (Q02750 whole entry S218D/S222D): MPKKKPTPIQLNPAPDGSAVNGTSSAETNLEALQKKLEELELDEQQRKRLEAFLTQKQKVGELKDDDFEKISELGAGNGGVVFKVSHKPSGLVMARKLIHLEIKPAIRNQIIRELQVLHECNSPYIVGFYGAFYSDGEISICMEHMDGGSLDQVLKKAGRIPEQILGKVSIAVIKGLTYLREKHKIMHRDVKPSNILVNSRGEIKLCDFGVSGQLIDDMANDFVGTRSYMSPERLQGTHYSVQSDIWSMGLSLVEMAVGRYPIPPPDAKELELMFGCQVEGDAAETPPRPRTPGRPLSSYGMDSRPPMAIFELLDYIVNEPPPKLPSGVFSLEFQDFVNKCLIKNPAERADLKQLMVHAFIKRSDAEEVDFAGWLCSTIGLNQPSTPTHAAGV

MAP2K5 (MEK5) = MAP2K5 (MEK5) (Homo sapiens, UniProt Q13163); test: SelectScreen kinase profiling; assay type: biochemical; settings: average of duplicate
Sequence of MAP2K5 (MEK5) (Q13163 whole entry): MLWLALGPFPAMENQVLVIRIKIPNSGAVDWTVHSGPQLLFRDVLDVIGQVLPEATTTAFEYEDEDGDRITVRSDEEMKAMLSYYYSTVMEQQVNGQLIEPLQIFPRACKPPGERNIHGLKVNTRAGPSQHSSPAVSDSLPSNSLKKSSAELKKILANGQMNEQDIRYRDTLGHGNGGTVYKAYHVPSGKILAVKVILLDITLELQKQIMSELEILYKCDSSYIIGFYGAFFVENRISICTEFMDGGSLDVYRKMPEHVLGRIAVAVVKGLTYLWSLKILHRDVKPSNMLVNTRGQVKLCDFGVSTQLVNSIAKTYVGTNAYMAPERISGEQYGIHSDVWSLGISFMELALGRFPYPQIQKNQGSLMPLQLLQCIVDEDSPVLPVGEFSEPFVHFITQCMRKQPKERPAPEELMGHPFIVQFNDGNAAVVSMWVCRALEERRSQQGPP

HCK = HCK (Homo sapiens, UniProt P08631); test: AssayQuant kinact/Ki profiling, PhosphoSens CSox-based kinetic assay
Sequence of HCK (P08631 whole entry): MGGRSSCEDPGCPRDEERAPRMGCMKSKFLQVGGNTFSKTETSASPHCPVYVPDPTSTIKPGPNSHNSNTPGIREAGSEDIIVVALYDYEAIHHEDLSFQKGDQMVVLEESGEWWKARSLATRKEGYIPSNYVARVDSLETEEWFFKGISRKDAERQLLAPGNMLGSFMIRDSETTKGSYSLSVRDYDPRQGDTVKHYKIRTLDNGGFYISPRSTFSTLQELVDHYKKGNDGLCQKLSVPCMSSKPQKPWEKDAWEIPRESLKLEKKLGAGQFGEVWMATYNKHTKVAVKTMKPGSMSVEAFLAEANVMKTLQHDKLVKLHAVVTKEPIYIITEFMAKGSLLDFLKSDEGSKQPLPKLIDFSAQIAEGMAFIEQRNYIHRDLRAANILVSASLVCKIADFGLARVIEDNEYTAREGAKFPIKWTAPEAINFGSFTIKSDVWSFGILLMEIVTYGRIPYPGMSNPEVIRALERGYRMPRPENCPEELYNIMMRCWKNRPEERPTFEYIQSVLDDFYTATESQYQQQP

BLK = BLK (Homo sapiens, UniProt P51451); test: as above; assay type: biochemical; set-up: purchased ThermoFisher / Life Technologies SelectScreen PV3683
Sequence of BLK (P51451 whole entry): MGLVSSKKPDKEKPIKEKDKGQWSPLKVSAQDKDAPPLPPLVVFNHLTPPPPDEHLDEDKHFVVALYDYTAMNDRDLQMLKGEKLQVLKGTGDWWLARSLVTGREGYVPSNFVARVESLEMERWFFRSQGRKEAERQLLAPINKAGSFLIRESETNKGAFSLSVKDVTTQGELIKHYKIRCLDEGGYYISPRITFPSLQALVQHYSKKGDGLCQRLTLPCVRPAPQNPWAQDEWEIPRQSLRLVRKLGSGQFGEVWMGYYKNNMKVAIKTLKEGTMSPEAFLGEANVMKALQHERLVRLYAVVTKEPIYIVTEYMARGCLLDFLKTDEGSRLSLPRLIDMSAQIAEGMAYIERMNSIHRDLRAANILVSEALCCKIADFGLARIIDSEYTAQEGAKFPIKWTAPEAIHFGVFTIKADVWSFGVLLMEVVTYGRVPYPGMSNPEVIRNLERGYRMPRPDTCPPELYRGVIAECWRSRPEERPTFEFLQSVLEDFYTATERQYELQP

PTK6 (Brk) = PTK6 (Brk) (Homo sapiens, UniProt Q13882); test: SelectScreen kinase profiling; assay type: biochemical; settings: average of duplicate
TEC = TEC (Homo sapiens, UniProt P42680); test: SelectScreen kinase profiling; assay type: biochemical; settings: average of duplicate
JAK3 = JAK3 (Homo sapiens, UniProt P52333); test: SelectScreen kinase profiling / Z′-Lyte kinase assay
Sequence of JAK3 (P52333 781-1124 limits assumed): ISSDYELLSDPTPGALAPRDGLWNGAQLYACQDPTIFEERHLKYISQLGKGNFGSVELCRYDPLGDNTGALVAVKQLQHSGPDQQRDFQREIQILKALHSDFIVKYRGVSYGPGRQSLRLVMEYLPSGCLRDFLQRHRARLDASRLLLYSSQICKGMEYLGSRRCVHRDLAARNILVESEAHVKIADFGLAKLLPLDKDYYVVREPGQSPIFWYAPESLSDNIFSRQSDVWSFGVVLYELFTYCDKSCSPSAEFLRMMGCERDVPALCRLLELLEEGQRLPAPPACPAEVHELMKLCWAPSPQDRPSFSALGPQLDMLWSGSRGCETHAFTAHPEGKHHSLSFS

BTK = BTK (Homo sapiens, UniProt Q06187); test: Western blot, phosphorylation of BTK in Jeko-1 cells; assay type: cell-based; settings: 2 h
Sequence of BTK (Q06187 whole entry, the tested form may be a part): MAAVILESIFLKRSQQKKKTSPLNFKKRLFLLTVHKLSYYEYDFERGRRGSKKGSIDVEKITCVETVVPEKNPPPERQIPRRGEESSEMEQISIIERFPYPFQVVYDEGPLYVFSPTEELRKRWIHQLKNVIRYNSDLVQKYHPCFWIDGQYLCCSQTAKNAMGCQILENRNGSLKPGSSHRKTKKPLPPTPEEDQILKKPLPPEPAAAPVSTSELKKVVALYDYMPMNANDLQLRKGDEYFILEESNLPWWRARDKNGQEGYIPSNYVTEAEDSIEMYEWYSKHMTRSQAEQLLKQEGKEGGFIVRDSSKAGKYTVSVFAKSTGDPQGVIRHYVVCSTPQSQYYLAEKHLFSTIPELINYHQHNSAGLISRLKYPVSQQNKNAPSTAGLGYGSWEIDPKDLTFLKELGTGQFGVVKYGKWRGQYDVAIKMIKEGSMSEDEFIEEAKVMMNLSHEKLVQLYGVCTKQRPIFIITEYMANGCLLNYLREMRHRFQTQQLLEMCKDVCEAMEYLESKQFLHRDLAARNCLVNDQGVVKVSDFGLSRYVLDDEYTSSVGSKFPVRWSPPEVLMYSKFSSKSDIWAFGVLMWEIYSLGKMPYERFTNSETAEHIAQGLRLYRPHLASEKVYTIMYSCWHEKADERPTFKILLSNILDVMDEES

BTK-NanoLuc fusion = target: T1, BTK-NanoLuc fusion (Homo sapiens, UniProt Q06187); test: NanoBRET cellular engagement of BTK; assay type: cell-based; settings: HEK293 cells
T1 construct: host or cells: HEK293
T1 sequence (Q06187 whole entry, the tested form may be a part): as above
Protocol: NanoBRET Experiments: HEK293 cells were transfected with the BTK-NanoLuc fusion vector (Promega, #N2501) according to the manufacturer’s protocol. After […]
Promega, #N2501) for 30 minutes. After an additional 30, 60, or 90 minutes the NanoBRET complete substrate plus inhibitor solution (3X solution in Opti-MEM I reduced serum medium, no phenol red, Promega, #N2501) was added to each well.
After 5-10 minutes, the BRET ratio was measured using BMG Labtech CLARIOstar with preloaded filters for donor 450nm/80nm BP (band pass) and acceptor 610nm LP (long

KIT = KIT (Homo sapiens, UniProt P10721); test: SelectScreen kinase profiling; assay type: biochemical; settings: average of duplicate
Sequence of KIT (P10721 26-976): as the sequence (P10721 26-976 V559D) above, with D534V counted along it

TXK = TXK (Homo sapiens, UniProt P42681); test: SelectScreen kinase profiling; assay type: biochemical; settings: average of duplicate

- inhibition at 1 µM (PDGFRB (PDGFR beta)): 6%
- inhibition at 1 µM (TTK): 2%
- inhibition at 1 µM (FRK (PTK5)): 71%
- IC50 (EGFR (ErbB1)): 197 nM
- inhibition at 1 µM (EGFR (ErbB1)): 89%
- Hillslope (EGFR (ErbB1); EGFR IC50 curve): 1.08
- inhibition at 0.000495 µM (EGFR (ErbB1); read-out: % Inhibition Point 1): -6%
- inhibition at 0.00152 µM (EGFR (ErbB1); read-out: % Inhibition Point 1): -4%
- inhibition at 0.00457 µM (EGFR (ErbB1); read-out: % Inhibition Point 1): -2%
- inhibition at 0.0137 µM (EGFR (ErbB1); read-out: % Inhibition Point 1): 4%
- inhibition at 0.0412 µM (EGFR (ErbB1); read-out: % Inhibition Point 1): 10%
- inhibition at 0.123 µM (EGFR (ErbB1); read-out: % Inhibition Point 1): 38%
- inhibition at 0.37 µM (EGFR (ErbB1); read-out: % Inhibition Point 1): 60%
- inhibition at 1.11 µM (EGFR (ErbB1); read-out: % Inhibition Point 1): 89%
- inhibition at 3.33 µM (EGFR (ErbB1); read-out: % Inhibition Point 1): 92%
- inhibition at 10 µM (EGFR (ErbB1); read-out: % Inhibition Point 1): 97%
- inhibition at 0.000495 µM (EGFR (ErbB1); read-out: % Inhibition Point 2): -1%
- inhibition at 0.00152 µM (EGFR (ErbB1); read-out: % Inhibition Point 2): -6%
- inhibition at 0.00457 µM (EGFR (ErbB1); read-out: % Inhibition Point 2): -4%
- inhibition at 0.0137 µM (EGFR (ErbB1); read-out: % Inhibition Point 2): 5%
- inhibition at 0.0412 µM (EGFR (ErbB1); read-out: % Inhibition Point 2): 8%
- inhibition at 0.123 µM (EGFR (ErbB1); read-out: % Inhibition Point 2): 35%
- inhibition at 0.37 µM (EGFR (ErbB1); read-out: % Inhibition Point 2): 63%
- inhibition at 1.11 µM (EGFR (ErbB1); read-out: % Inhibition Point 2): 82%
- inhibition at 3.33 µM (EGFR (ErbB1); read-out: % Inhibition Point 2): 96%
- inhibition at 10 µM (EGFR (ErbB1); read-out: % Inhibition Point 2): 95%
- inhibition at 1 µM (KIT V559D): 14%
- inhibition at 1 µM (LYN A): 85%
- inhibition at 1 µM (PDGFRA (PDGFR alpha)): 16%
- inhibition at 1 µM (RIPK2): 95%
- inhibition at 1 µM [1]: 12%
- inhibition at 1 µM (MAP2K5 (MEK5)): 32%
- kinact (HCK; read-out: HCK kinact): 0.0009 s⁻¹
- kinact/KI (HCK; read-out: HCK kinact/KI): 1730 M⁻¹ s⁻¹
- kinact/KI (BLK; 2.5 nM enzyme, 1000 µM ATP, two step fit): 320000 M⁻¹ s⁻¹
- BLK kinact/Ki (BLK; 2.5 nM enzyme, 1000 µM ATP, two step fit, listed as Monomethyl Analog): 316,000 M^-1S^-1
- kinact (BLK; fitted value, two step): 0.0034 s⁻¹
- inhibition at 1 µM (PTK6 (Brk)): 97%
- inhibition at 1 µM (TEC): 100%
- IC50 (JAK3): 874 nM
- inhibition at 1 µM (JAK3): 65%
- JAK3, BTK/Kinase (JAK3; BTK selectivity from IC50 values): 934 x
- Hillslope (JAK3; JAK3 IC50 curve): 1.09
- inhibition at 0.000495 µM (JAK3; read-out: % Inhibition Point 1): -1%
- inhibition at 0.00152 µM (JAK3; read-out: % Inhibition Point 1): -7%
- inhibition at 0.00457 µM (JAK3; read-out: % Inhibition Point 1): 2%
- inhibition at 0.0137 µM (JAK3; read-out: % Inhibition Point 1): -5%
- inhibition at 0.0412 µM (JAK3; read-out: % Inhibition Point 1): 6%
- inhibition at 0.123 µM (JAK3; read-out: % Inhibition Point 1): 9%
- inhibition at 0.37 µM (JAK3; read-out: % Inhibition Point 1): 28%
- inhibition at 1.11 µM (JAK3; read-out: % Inhibition Point 1): 55%
- inhibition at 3.33 µM (JAK3; read-out: % Inhibition Point 1): 89%
- inhibition at 10 µM (JAK3; read-out: % Inhibition Point 1): 98%
- inhibition at 0.000495 µM (JAK3; read-out: % Inhibition Point 2): -4%
- inhibition at 0.00152 µM (JAK3; read-out: % Inhibition Point 2): -5%
- inhibition at 0.00457 µM (JAK3; read-out: % Inhibition Point 2): 0%
- inhibition at 0.0137 µM (JAK3; read-out: % Inhibition Point 2): -3%
- inhibition at 0.0412 µM (JAK3; read-out: % Inhibition Point 2): -2%
- inhibition at 0.123 µM (JAK3; read-out: % Inhibition Point 2): 10%
- inhibition at 0.37 µM (JAK3; read-out: % Inhibition Point 2): 27%
- inhibition at 1.11 µM (JAK3; read-out: % Inhibition Point 2): 56%
- inhibition at 3.33 µM (JAK3; read-out: % Inhibition Point 2): 85%
- inhibition at 10 µM (JAK3; read-out: % Inhibition Point 2): 93%
- pBTK/BTK ratio normalized to the DMSO control (BTK; 1 uM): 0.54
- pBTK/BTK ratio normalized to the DMSO control (BTK; 10 uM): 0.21
- pBTK/BTK ratio normalized to the DMSO control (BTK; .01 uM): 0.26
- pBTK/BTK ratio normalized to the DMSO control (BTK; .1 uM): 0.39
- IC50 (BTK-NanoLuc fusion; 30 min): 211 nM
- IC50 (BTK-NanoLuc fusion; 60 min (30 + 30)): 154 nM
- IC50 (BTK-NanoLuc fusion; 90 min (30 + 60)): 118 nM
- IC50 (BTK-NanoLuc fusion; 90 min post compound addition): 109 nM
- IC50 (BTK-NanoLuc fusion; 120 min (30 + 90)): 109 nM
- inhibition at 1 µM (KIT): 15%
- inhibition at 1 µM (TXK): 99%
Structure (SMILES): C=CC(=O)N1CCC[C@@H](n2nc(-c3ccc(Oc4ccccc4)cc3C)c3c(N)ncnc32)C1 [Compound 2, (R)-1-(3-(4-amino-3-(2-methyl-4-phenoxyphenyl)-1H-pyrazolo[3,4-d]pyrimidin-1-yl)piperidin-1-yl)prop-2-en-1-one]
